According to PubChem BioAssay AID330 (DTP/NCI, 2004):
Where “and” joins values, the source holds several entries; their conditions need not be identical. Equal entries are not always repeated. Inconclusive results and toxic doses are left out. Rule for the calls: active = survival T/C of 150% or more; inactive = T/C below 125% in these data.

System: P388 leukemia ip, CD2F1 mice, survival T/C
Experiment: NCI In Vivo Anticancer Drug Screen. Data for tumor model P388 Leukemia (intraperitoneal) in CD2F1 (CDF1) mice
Conditions: endpoint: median survival time, higher = longer survival
Outline: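 Mice carrying the transplanted tumor received test compound or vehicle. Survival was recorded in each group, and the value is the treated-group measurement divided by that of the vehicle-treated control group.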

[1] = dose: 60.0 mg/kg/injection, schedule: Q01DX005 (ip), vehicle: saline
[2] = dose: 120.0 mg/kg/injection, schedule: Q01DX005 (ip), vehicle: saline
[3] = dose: 240.0 mg/kg/injection, schedule: Q01DX005 (ip), vehicle: saline
[4] = dose: 60.0 mg/kg/injection, schedule: Q01DX005 (ip), vehicle: Klucel (hydroxypropylcellulose) (HPC)
[5] = dose: 120.0 mg/kg/injection, schedule: Q01DX005 (ip), vehicle: Klucel (hydroxypropylcellulose) (HPC)
[6] = dose: 25.0 mg/kg/injection, schedule: Q01DX009 (ip), vehicle: saline with Tween-80
[7] = dose: 50.0 mg/kg/injection, schedule: Q01DX009 (ip), vehicle: saline with Tween-80
[8] = dose: 100.0 mg/kg/injection, schedule: Q01DX009 (ip), vehicle: saline with Tween-80
[9] = dose: 50.0 mg/kg/injection, schedule: Q01DX005 (ip), vehicle: Klucel (hydroxypropylcellulose) (HPC)
[10] = dose: 100.0 mg/kg/injection, schedule: Q01DX005 (ip), vehicle: Klucel (hydroxypropylcellulose) (HPC)
[11] = dose: 200.0 mg/kg/injection, schedule: Q01DX005 (ip), vehicle: Klucel (hydroxypropylcellulose) (HPC)

Measured: T/C

O=C1CCCCC1C1(O)C(=O)Nc2ccccc21 (configuration not stated)
inactive: [1] 98 % of control | [2] 89 % of control | [3] 89 % of control

CN(C)NP(=O)(NN(C)C)c1ccccc1
inactive: [1] 100 % of control | [2] 103 % of control | [3] 109 % of control

Cc1ccc(NC(O)(C(F)(F)F)C(F)(F)F)cc1
inactive: dose: 100.0 mg/kg/injection, schedule: Q04DX002 (ip), vehicle: Klucel (hydroxypropylcellulose) (HPC) 100 % of control | dose: 200.0 mg/kg/injection, schedule: Q04DX002 (ip), vehicle: Klucel (hydroxypropylcellulose) (HPC) 97 % of control | dose: 400.0 mg/kg/injection, schedule: Q04DX002 (ip), vehicle: Klucel (hydroxypropylcellulose) (HPC) 96 % of control

CCOC(=O)c1ccc(NC(=O)OCc2ccco2)cc1
inactive: [4] 89 % of control | [5] 92 % of control | dose: 240.0 mg/kg/injection, schedule: Q01DX005 (ip), vehicle: Klucel (hydroxypropylcellulose) (HPC) 91 % of control

CCOC(=O)C(C)(NC(=O)CN)C1CC1 (configuration not stated)
inactive: dose: 50.0 mg/kg/injection, schedule: Q01DX009 (ip), vehicle: saline 90 % of control | dose: 100.0 mg/kg/injection, schedule: Q01DX009 (ip), vehicle: saline 94 % of control | dose: 200.0 mg/kg/injection, schedule: Q01DX009 (ip), vehicle: saline 97 % of control

Cc1ncccc1[N+](=O)[O-]
inactive: dose: 12.5 mg/kg/injection, schedule: Q01DX009 (ip), vehicle: saline + Tween-80 + alcohol 100 % of control | dose: 25.0 mg/kg/injection, schedule: Q01DX009 (ip), vehicle: saline + Tween-80 + alcohol 100 % of control | dose: 50.0 mg/kg/injection, schedule: Q01DX009 (ip), vehicle: saline + Tween-80 + alcohol 106 % of control and 93 % of control

C/C(=C(/O)c1ccc(Cl)cc1)c1nc2ccc(Cl)cc2[nH]c1=O
inactive: [4] 96 % of control | [5] 101 % of control

CCCC(=O)C#C[Si](C)(C)C
inactive: dose: 50.0 mg/kg/injection, schedule: Q01DX005 (ip), vehicle: saline with Tween-80 103 % of control | dose: 100.0 mg/kg/injection, schedule: Q01DX005 (ip), vehicle: saline with Tween-80 103 % of control

CCOC(=O)C[N+]12CCC34c5cc(OC)c(OC)cc5N5C(=O)CC6OCC=C(C1)C(CC32)C6C54 (configuration not stated)
inactive: dose: 1.56 mg/kg/injection, schedule: Q01DX009 (ip), vehicle: saline with Tween-80 100 % of control and 108 % of control | dose: 3.12 mg/kg/injection, schedule: Q01DX009 (ip), vehicle: saline with Tween-80 100 % of control and 108 % of control | [6] 105 % of control (2×) and 94 % of control | [7] 105 % of control and 111 % of control and 95 % of control | [8] 105 % of control and 111 % of control and 98 % of control

c1ccc(N=P(c2ccccc2)(c2ccccc2)c2ccccc2)cc1
inactive: [6] 96 % of control | [7] 108 % of control | [8] 108 % of control

Oc1c(Br)cc(Br)cc1Oc1c(O)c(Br)c(Br)c(Br)c1Br
inactive: dose: 6.25 mg/kg/injection, schedule: Q01DX005 (ip), vehicle: Klucel (hydroxypropylcellulose) (HPC) 104 % of control | dose: 12.5 mg/kg/injection, schedule: Q01DX005 (ip), vehicle: Klucel (hydroxypropylcellulose) (HPC) 102 % of control | dose: 25.0 mg/kg/injection, schedule: Q01DX005 (ip), vehicle: Klucel (hydroxypropylcellulose) (HPC) 104 % of control | [9] 100 % of control and 101 % of control | [10] 100 % of control | [11] 99 % of control

NCc1c(O)ccc2ccccc12
inactive: [7] 105 % of control | [8] 107 % of control | dose: 200.0 mg/kg/injection, schedule: Q01DX009 (ip), vehicle: saline with Tween-80 108 % of control

O=C1c2ccccc2C(=O)N1OCc1ccc(-c2ccccc2)cc1
inactive: [9] 96 % of control | [10] 93 % of control

CC(=O)Nc1ccc(/C=N/NC(=O)COc2ccccc2)cc1
inactive: [1] 100 % of control | [2] 100 % of control | [3] 100 % of control

O=C1c2ccccc2C(=O)c2c(NCCC3CCCN4CCCCC34)cccc21 (configuration not stated)
inactive: [9] 94 % of control | [10] 97 % of control | [11] 96 % of control
